These results are taken from patent US9517265B2, “Methods for the prevention and/or treatment of memory impairment” (The Governing Council of the University of Toronto, priority 2010, dated 2016).

As usually defined, the inhibition is the share of the control response that was lost under treatment.

Experiment [1] deals with α1, α2 and α3 subunit-containing GABAA receptors. The following applies: 1 mg/kg intraperitoneal; cited from earlier work.
Another experiment concerns the target α5GABAARs (Mus musculus, UniProt P22723+Q8BHJ7). Kind of experiment: Tonic inhibitory current, whole cell voltage-clamp in cultured hippocampal neurons. The class given is cell-based, mice. Also noted: endogenous in cells; host or cells: primary embryonic mouse hippocampal neurons, alone or co-cultured with cortical microglia.
For experiment [2] the following is noted: cited from earlier work.

Entries after “also recorded” stand apart in the source; their conditions may differ.

α5GABAARs, sequence (Q8BHJ7 32-463 limits assumed): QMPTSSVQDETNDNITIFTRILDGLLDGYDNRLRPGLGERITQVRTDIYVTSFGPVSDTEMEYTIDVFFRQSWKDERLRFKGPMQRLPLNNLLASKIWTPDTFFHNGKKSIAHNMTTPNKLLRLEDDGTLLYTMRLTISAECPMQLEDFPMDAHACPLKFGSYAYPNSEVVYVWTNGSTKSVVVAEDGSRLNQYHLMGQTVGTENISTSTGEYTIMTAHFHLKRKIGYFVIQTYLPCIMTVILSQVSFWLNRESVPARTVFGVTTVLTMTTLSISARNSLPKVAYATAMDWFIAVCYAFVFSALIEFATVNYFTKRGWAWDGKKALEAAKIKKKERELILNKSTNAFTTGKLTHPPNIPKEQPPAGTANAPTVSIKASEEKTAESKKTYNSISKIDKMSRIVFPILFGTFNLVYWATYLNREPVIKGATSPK
α5GABAARs, sequence (P63080 26-473 partner): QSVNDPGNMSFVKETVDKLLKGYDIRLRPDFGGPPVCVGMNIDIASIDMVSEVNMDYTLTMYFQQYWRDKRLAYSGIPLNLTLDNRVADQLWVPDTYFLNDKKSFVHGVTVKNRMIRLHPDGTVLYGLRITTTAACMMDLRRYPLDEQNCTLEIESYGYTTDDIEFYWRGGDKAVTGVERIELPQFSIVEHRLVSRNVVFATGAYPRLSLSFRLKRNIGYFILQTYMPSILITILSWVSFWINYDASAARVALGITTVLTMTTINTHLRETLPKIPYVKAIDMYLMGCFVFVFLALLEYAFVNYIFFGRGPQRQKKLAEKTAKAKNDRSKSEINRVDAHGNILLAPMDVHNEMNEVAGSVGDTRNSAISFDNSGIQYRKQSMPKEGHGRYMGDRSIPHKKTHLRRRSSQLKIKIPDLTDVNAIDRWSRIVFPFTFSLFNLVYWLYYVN
α5GABAARs, sequence (P22723 39-474): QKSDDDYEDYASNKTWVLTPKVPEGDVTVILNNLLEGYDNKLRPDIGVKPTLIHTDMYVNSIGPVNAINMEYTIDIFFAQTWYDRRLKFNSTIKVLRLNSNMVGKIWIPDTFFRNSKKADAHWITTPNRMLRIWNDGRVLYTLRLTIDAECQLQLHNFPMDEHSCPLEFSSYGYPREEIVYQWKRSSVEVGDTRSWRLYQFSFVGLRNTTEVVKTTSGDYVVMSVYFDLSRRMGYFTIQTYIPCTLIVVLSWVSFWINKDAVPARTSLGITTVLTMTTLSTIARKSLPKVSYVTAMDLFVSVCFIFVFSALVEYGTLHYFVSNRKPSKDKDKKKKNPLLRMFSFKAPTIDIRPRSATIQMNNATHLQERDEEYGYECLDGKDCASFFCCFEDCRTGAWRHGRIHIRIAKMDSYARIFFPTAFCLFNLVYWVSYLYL

For `CCOC(=O)c1ncn2c1[C@@H]1CCCN1C(=O)c1cc(OC)ccc1-2` [L-655,708], the “occupancy of α1, α2 and α3 subunit-containing GABAA receptors” value in experiment [1] was 18%. The inhibition at 0.02 µM on α5GABAARs (L-655,708 20 nM, n=11, read-out: inhibition of the IL-1β-enhanced tonic current) came out at 66.1%. In addition, the IL-1β-modulated tonic current on α5GABAARs (L-655,708 20 nM, n=12) is given as 69.2±4.4 % of control. In addition, on α5GABAARs (cultured hippocampal neurons), the “effect on the tonic current (in words)” value was “the tonic current is selectively inhibited; also recorded: reverses enhancement of the tonic current by the inhaled anaesthetics isoflurane and desflurane; also recorded: reverses the sevoflurane-induced increase in tonic inhibitory conductance generated by GABAA receptors”.
For the molecule `FC(F)OC(Cl)C(F)(F)F` (stereo not shown) [isoflurane], the “concentration required to impair the freezing response” value in experiment [2] (administered during contextual fear learning) is given as 0.6%. The “concentration required for memory blockade during anesthesia” value in experiment [2] (rat, in vivo) was 0.4%. Besides, the “threshold concentration that impaired memory performance during fear conditioning” value in experiment [2] (rats) was 0.2%.
